Results: patent publication US10509041B2, “Glucose derivative, and cell imaging method and imaging agent using said derivative” (HIROSAKI UNIVERSITY, priority 2014, dated 2019)

Legend:
[1] = tested on: neuronal cells of the substantia nigra pars reticulate of the midbrain; test: Fluorescent imaging of acutely isolated normal neuronal cells; format: cell-based, mouse; conditions: 3 minutes, 8 minutes after start of washout
Method: The whole amount of the 0.5 mg CLG vial was recovered using 0.73 mL in total of 10% DMSO and dissolved (100 μM) by addition to 14.79 ml of a HEPES solution for image acquisition according to the method described in Non Patent Literature 2. […]
150 mM NaCl, 5 mM KCl, 1 mM MgCl2, 2 mM CaCl2, and 10 mM HEPES (the pH of the solution was adjusted to 7.4 with a 1 M tris(2-amino-2-hydroxymethyl-1,3-propanediol) solution). The concentration of glucose was set to 10 mM. 0.1 mM carbenoxolone (Sigma-Aldrich, #C4790) was added thereto for the purpose of inhibiting the entrance and exit of fluorescently labeled glucose by way of gap junction/hemichannel. This HEPES solution for image acquisition was used for preparing the CLG solution and the mixed solution with the additional fluorescent sugar derivative.
Neuronal cells […] to the method described in the previous reports of the inventors (WO2010/16587 (Patent Literature 2)) and (WO2012/133688 (Patent Literature 4)) and attached to each glass cover slip coated with poly-L-lysine. Then, the glass cover slip was transferred into the HEPES solution for image acquisition in a perfusion chamber loaded on a stage of a fluorescence microscope, followed by observation.
A silicon plate of 1 mm thickness bored to have a streamline-shaped hole (10 mm wide x 35 mm long) was placed via cover glass onto an aluminum heating control platform (Warner Instruments) having a round hole (diameter: 18 mm) for an objective lens at the bottom, and allowed to be in close contact with the cover glass.
The HEPES solution for image acquisition was warmed in advance in an aluminum syringe heater and supplied to the perfusion chamber through hydrostatic pressure. The perfusion rate was adjusted to 1.3±0.2 mL/min using a flow rate adjuster. Immediately before being introduced to the perfusion chamber, the solution was rewarmed via an inline heater so that the actually measured temperature of the perfusate in an observation region in the chamber was adjusted to 32.5±1° C. The CLG/2-TRLG mixed solution was able to be supplied in the same way as above and was switched with the HEPES solution for image acquisition using an electromagnetic valve capable of controlling the opening and closing of the channel. The solution was removed using a vacuum pump capable of controlling suction pressure.
The fluorescence microscope used was NIKON ECLIPS-Ti, and images were acquired with a CCD camera Retiga 2000R.
CLG and 2-TRLG were each detected using the following filter cassette.
Excitation 360/40 nm, Dichroic mirror 400 nm, Emission 460/50 nm.
Excitation 567/15 nm, Dichroic mirror 593 nm, Emission 593 nm Long pass.
The objective lens used in this method was ×20 dry lens (Nikon Plan S Fluor). The images were acquired at 1600×1200 pixels. […]

[2] = tested on: mouse insulinoma cells (MIN6); test: Influence of excessive D-glucose or L-glucose on increase in fluorescence intensity caused by CDG or CLG in MIN6 cells; format: cell-based; conditions: 100 μM, 37° C. 5 min, MIN6 culture day 13, versus non-excessive glucose control
Method: Whether or not increase in fluorescence intensity caused by the administration of the blue fluorescent D-glucose derivative CDG (100 μM) to the mouse insulinoma cells MIN6 at culture day 13 was inhibited by a large excess of D-glucose or L-glucose was examined. The blue fluorescent L-glucose derivative CLG was similarly analyzed as a control. However, the following conditions were changed.
Although the usual KRB solution contains 129 mM NaCl and 5.6 mM D-glucose, the osmotic pressure of a control solution (non-excessive glucose administration group solution) for this experiment was adjusted to 270 mOsm by substituting a portion of NaCl with choline-Cl, in order to equalize charge and osmotic pressure between the control solution and a KRB solution for excessive glucose administration. Also, the KRB solution for excessive glucose administration was allowed to contain NaCl and glucose according to the composition given below. In this respect, choline-Cl was added thereto in order to equalize osmotic pressure between this solution and the control solution (non-excessive glucose administration group solution).
100 mM NaCl and 5.6 mM D-glucose (non-excessive glucose administration group solution)
100 mM NaCl and 50 mM D-glucose (50 mM excessive D-glucose administration group solution)
100 mM NaCl, 50 mM L-glucose, and 5.6 mM D-glucose (50 mM excessive L-glucose administration group solution)
These dedicated KRB solutions were also used as a solution for preparing CDG and CLG solutions in this Example.
CDG and CLG were placed on different plates for the experiment. A CDG solution (or a CLG solution) prepared using each dedicated KRB solution was administered thereto using an 8-channel pipette (37° C., 5 min). Before the administration, replacement with each dedicated KRB solution was carried out in advance, and the autofluorescence of each well was measured with a fluorescence microplate reader. The time from the start of the replacement to immediately before the administration was approximately 28 minutes.
After the completion of the administration, first, the fluorescent solution in each well was temporarily diluted using 200 μL of the dedicated KRB solution and then diluted using 300 μL of the usual KRB solution.
The influence of the presence of 50 mM L-glucose was also studied as a control in evaluating the influence of the presence of a large excess (50 mM) of D-glucose on increase in fluorescence intensity.

Structure (SMILES) | uptake into normal neuronal cells ([1]; 100 μM CDG+20 μM 2-TRLG mixed solution, 14-day-old mouse) | effect of 50 mM D-glucose on increase in fluorescence intensity caused by administration [2] | effect of 50 mM L-glucose on increase in fluorescence intensity caused by administration [2] | uptake into normal neuronal cells ([1]; 100 μM CLG+20 μM 2-TRLG mixed solution, 21-day-old mouse)
O=c1ccc2ccc(NC3C(O)OC(CO)[C@@H](O)[C@@H]3O)cc2o1 (stereo partly drawn) [CDG, 2-deoxy-2-(2-oxo-2H-chromen-7-yl)amino-D-glucose] | taken into the normal neuronal cells | significantly suppressed | not suppressed | –
O=c1ccc2ccc(NC3C(O)OC(CO)[C@H](O)[C@H]3O)cc2o1 (stereo partly drawn) [CLG, 2-deoxy-2-(2-oxo-2H-chromen-7-yl)amino-L-glucose] | – | slightly inhibited | not inhibited | not observed
